Columns and labels:
Assay in all cases: KinaseProfiler Assay
Assay type in all cases: biochemical
[1] = target: PAK5 (Homo sapiens, UniProt Q9P286); settings: read-out: PAK5, % of Control
[2] = target: T1, EphB1 (Homo sapiens, UniProt P54762); settings: read-out: EphB1, % of Control
T1 sequence (P54762 18-984): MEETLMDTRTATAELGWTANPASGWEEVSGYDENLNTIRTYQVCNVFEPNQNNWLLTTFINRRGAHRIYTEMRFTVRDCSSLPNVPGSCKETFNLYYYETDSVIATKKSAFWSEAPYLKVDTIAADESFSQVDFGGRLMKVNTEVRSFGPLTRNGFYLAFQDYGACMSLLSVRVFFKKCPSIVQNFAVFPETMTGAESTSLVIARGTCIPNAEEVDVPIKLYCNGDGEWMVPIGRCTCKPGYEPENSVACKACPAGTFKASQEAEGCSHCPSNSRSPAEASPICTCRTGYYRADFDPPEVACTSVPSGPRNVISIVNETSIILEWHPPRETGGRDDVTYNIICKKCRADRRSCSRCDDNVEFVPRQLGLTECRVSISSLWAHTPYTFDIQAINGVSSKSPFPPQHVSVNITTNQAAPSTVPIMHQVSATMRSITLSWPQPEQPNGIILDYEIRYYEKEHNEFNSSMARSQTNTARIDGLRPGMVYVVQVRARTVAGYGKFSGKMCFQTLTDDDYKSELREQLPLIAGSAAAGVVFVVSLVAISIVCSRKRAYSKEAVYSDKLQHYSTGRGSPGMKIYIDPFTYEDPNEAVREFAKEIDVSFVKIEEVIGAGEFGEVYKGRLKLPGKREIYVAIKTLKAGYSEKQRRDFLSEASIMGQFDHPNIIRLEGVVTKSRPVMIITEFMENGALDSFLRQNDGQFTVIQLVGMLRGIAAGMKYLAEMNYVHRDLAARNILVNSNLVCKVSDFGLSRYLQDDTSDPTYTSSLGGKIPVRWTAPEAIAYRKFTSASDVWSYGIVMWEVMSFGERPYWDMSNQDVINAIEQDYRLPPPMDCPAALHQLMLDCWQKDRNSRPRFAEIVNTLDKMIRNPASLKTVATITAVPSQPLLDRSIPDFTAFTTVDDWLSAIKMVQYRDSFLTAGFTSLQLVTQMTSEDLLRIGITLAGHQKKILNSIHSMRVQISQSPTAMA

[3] = target: T2, IKKβ (Homo sapiens, UniProt O14920); settings: read-out: IKKβ, % of Control
T2 sequence (O14920 1-756): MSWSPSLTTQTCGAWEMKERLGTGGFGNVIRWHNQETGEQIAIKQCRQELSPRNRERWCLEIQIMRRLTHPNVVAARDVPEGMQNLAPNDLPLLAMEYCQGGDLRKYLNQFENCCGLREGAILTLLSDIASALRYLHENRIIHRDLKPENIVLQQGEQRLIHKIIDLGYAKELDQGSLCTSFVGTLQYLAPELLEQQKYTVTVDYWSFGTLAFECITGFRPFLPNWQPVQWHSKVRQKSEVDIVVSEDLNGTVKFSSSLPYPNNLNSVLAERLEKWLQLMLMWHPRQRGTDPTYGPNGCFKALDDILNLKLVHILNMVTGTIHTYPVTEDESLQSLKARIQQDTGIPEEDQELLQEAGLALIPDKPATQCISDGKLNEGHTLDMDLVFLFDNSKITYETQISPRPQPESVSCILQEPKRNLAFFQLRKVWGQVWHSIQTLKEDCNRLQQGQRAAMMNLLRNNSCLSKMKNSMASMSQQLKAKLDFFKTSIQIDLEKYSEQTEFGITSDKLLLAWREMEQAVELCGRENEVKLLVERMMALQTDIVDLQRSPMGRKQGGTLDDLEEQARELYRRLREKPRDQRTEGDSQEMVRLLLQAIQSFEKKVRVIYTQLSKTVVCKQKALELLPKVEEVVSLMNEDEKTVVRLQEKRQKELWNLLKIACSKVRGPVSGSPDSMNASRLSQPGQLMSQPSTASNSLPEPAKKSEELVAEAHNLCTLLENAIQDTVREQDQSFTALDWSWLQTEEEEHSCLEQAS

[4] = target: TrkA (Homo sapiens, UniProt P04629); settings: read-out: TrkA, % of Control
[5] = target: Ron (Homo sapiens, UniProt Q04912); settings: read-out: Ron, % of Control
[6] = target: T3, SGK2 (Homo sapiens, UniProt Q9HBY8); settings: read-out: SGK2, % of Control
T3 sequence (Q9HBY8 1-367): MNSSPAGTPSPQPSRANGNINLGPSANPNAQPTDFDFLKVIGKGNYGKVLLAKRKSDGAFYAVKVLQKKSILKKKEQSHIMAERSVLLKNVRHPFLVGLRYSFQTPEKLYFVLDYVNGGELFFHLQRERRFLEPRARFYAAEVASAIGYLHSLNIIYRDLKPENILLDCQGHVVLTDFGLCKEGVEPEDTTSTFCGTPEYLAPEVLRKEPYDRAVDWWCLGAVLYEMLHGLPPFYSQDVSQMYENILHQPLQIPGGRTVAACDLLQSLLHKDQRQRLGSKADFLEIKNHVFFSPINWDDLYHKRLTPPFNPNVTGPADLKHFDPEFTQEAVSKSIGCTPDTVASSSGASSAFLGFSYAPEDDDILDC

[7] = target: CK1γ2 (Homo sapiens, UniProt P78368); settings: read-out: CK1γ2, % of Control
[8] = target: Bmx (Homo sapiens, UniProt P51813); settings: 25 ug/ml; read-out: Bmx, % of Control
Sequence of Bmx (P51813 whole entry): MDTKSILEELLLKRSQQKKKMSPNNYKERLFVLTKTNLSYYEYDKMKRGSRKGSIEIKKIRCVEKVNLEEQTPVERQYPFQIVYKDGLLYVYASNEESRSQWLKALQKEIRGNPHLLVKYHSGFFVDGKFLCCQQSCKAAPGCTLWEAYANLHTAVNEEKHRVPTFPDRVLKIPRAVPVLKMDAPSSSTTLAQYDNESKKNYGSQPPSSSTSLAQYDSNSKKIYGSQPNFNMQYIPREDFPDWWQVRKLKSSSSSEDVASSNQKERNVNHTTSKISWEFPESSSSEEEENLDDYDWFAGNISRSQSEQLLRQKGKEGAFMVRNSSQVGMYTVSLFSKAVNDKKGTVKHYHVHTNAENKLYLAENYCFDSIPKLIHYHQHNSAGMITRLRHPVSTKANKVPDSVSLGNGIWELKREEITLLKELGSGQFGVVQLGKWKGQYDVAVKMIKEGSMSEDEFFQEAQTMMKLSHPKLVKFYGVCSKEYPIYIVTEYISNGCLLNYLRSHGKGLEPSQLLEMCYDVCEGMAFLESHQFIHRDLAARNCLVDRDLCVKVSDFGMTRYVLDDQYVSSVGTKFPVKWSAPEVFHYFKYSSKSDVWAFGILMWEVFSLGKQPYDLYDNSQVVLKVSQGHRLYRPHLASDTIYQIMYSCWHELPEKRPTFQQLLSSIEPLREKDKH

Sequence of PAK5 (Q9P286 whole entry): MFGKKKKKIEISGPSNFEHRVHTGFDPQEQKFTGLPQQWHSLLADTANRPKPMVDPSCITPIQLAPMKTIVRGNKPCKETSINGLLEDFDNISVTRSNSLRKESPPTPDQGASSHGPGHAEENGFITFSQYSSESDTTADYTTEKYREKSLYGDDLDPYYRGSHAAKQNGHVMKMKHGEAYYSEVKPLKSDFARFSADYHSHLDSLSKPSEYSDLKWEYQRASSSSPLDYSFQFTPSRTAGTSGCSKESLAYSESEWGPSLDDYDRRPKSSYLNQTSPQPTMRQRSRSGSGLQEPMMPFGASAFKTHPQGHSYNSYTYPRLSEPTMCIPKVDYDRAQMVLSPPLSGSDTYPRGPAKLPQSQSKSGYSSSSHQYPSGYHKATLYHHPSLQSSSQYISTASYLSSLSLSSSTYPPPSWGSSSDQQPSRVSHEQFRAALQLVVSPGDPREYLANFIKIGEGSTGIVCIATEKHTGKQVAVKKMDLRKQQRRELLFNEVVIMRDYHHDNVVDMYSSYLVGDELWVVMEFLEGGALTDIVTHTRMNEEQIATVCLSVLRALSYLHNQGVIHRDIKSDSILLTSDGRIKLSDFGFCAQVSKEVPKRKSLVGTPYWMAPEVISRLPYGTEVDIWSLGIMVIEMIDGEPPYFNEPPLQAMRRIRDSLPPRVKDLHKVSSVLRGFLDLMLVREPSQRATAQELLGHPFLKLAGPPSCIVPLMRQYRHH
Sequence of TrkA (P04629 33-796): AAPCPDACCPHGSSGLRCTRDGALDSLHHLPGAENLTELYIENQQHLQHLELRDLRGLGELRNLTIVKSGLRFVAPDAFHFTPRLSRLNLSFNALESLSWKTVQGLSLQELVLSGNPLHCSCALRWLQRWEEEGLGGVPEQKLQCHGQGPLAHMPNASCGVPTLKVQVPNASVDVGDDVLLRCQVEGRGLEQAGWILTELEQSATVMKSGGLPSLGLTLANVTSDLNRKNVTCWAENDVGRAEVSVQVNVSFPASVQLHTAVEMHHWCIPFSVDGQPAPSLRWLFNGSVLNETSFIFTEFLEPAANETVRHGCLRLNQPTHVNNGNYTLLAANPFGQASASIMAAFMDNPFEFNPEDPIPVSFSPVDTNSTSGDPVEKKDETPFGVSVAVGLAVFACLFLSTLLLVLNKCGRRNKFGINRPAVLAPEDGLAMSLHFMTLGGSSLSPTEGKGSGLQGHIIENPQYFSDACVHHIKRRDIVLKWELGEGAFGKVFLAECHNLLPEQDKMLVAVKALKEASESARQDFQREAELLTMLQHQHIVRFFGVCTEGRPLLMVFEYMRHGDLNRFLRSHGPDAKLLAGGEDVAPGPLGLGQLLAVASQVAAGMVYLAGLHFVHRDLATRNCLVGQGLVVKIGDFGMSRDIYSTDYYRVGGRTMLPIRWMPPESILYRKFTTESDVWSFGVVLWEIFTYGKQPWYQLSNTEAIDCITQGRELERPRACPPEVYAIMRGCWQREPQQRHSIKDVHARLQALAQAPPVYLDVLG
Sequence of Ron (Q04912 25-1400): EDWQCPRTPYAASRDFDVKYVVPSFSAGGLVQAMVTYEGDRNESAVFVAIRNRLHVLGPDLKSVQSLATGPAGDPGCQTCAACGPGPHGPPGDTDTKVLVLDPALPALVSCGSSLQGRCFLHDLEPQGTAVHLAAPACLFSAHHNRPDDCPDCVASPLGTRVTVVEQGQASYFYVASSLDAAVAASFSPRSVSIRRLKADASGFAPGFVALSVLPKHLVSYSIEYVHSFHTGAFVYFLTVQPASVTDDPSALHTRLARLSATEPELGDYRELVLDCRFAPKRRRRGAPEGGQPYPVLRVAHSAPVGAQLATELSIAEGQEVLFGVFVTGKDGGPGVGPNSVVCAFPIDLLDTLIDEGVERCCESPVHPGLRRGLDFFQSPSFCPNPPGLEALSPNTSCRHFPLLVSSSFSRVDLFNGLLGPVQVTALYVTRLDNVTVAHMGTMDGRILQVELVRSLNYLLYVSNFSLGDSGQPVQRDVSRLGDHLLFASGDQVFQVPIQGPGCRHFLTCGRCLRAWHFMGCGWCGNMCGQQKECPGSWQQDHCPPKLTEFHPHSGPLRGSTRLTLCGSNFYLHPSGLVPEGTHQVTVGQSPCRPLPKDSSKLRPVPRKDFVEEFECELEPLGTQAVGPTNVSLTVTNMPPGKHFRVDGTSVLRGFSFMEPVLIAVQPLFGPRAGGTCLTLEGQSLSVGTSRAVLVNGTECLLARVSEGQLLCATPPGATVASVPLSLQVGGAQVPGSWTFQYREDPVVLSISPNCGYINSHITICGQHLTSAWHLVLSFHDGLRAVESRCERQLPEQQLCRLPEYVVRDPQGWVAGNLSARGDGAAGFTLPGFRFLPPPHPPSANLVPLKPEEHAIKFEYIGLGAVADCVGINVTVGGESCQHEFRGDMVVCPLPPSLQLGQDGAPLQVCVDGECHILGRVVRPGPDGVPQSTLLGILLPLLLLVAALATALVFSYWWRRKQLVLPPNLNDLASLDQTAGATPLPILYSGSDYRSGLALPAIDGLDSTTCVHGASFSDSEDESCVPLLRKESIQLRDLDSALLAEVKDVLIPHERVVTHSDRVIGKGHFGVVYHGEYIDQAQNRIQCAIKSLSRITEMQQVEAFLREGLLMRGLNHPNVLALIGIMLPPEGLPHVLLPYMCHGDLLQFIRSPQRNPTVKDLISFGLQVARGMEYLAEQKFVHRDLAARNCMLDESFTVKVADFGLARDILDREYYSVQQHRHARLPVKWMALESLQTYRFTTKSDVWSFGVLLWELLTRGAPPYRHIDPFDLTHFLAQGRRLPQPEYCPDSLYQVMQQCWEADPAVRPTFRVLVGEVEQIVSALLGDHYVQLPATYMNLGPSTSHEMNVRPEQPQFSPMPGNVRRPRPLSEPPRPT
Sequence of CK1γ2 (P78368 whole entry): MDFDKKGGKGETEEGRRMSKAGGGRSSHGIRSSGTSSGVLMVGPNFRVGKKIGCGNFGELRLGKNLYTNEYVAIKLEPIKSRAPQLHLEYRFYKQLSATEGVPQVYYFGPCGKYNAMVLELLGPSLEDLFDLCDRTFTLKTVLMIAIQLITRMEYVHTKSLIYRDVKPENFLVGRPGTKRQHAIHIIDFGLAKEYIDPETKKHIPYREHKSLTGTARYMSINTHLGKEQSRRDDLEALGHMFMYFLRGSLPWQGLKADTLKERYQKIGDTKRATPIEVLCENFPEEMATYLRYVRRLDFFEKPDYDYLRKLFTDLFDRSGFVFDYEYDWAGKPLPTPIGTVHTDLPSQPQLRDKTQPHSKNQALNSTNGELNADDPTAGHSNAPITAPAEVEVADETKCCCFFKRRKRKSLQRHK

remaining activity at 1 µg/mL ([1]; 1 ug/ml): 106%
remaining activity at 5 µg/mL ([1]; 5 ug/ml): 99%
remaining activity at 25 µg/mL ([1]; 25 ug/ml): 42%
remaining activity at 50 µg/mL ([1]; 50 ug/ml): 5%
remaining activity at 1 µg/mL ([2]; 1 ug/ml): 92%
remaining activity at 25 µg/mL ([2]; 25 ug/ml): 175%
remaining activity at 50 µg/mL ([2]; 50 ug/ml): 161%
remaining activity at 1 µg/mL ([3]; 1 ug/ml): 145%
remaining activity at 5 µg/mL ([3]; 5 ug/ml): 118%
remaining activity at 25 µg/mL ([3]; 25 ug/ml): 61%
remaining activity at 50 µg/mL ([3]; 50 ug/ml): 44%
remaining activity at 1 µg/mL ([4]; 1 ug/ml): 36%
remaining activity at 5 µg/mL ([4]; 5 ug/ml): 19%
remaining activity at 25 µg/mL ([4]; 25 ug/ml): 8%
remaining activity at 50 µg/mL ([4]; 50 ug/ml): 3%
remaining activity at 1 µg/mL ([5]; 1 ug/ml): 135%
remaining activity at 5 µg/mL ([5]; 5 ug/ml): 127%
remaining activity at 25 µg/mL ([5]; 25 ug/ml): 60%
remaining activity at 50 µg/mL ([5]; 50 ug/ml): 69%
remaining activity at 1 µg/mL ([6]; 1 ug/ml): 130%
remaining activity at 5 µg/mL ([6]; 5 ug/ml): 110%
remaining activity at 50 µg/mL ([6]; 50 ug/ml): -4%
remaining activity at 1 µg/mL ([7]; 1 ug/ml): 92%
remaining activity at 5 µg/mL ([7]; 5 ug/ml): 48%
remaining activity at 25 µg/mL ([7]; 25 ug/ml): 30%
remaining activity at 50 µg/mL ([7]; 50 ug/ml): 12%
remaining activity at 25 µg/mL [8]: 22%
SMILES: COc1cc(O)c(CC=C(C)C)c(O)c1C(=O)/C=C/c1ccc(O)cc1 [Xanthohumol, xanthohumol]
